Results reported in patent publication US20080009418A1, “Selective Inhibitors” (Alchemia LTD., priority 2004, published 2008).

Key:
Human δ-opioid (DOP) = target: T1, Human δ-opioid (DOP) (Homo sapiens, UniProt P41143); experiment: Radioligand binding, human δ-opioid (DOP) membranes, FlashPlate, [3H]-Bremazocine; details: compound at 10 μM, [3H]-Bremazocine
T1 construct: purchased Perkin Elmer Biosignal
Procedure, shortened: (§1)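 Cloned human receptor membranes were coated onto FlashPlate wells and incubated with radioligand and compound (added from a 0.5 mM DMSO daughter plate) for 1 hour at room temperature in the dark. Scintillation counting gave percent inhibition, with DMSO defining total and reference ligand defining non-specific binding.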

[1] = target: T2, Human neuropeptide Y (NPY-Y1) (Homo sapiens, UniProt P25929); experiment: Radioligand binding, human neuropeptide Y NPY-Y1 membranes, FlashPlate, [125I]-PYY; details: compound at 10 μM, [125I]-PYY
T2 construct: purchased Perkin Elmer Biosignal
T2 sequence (P25929 1-384): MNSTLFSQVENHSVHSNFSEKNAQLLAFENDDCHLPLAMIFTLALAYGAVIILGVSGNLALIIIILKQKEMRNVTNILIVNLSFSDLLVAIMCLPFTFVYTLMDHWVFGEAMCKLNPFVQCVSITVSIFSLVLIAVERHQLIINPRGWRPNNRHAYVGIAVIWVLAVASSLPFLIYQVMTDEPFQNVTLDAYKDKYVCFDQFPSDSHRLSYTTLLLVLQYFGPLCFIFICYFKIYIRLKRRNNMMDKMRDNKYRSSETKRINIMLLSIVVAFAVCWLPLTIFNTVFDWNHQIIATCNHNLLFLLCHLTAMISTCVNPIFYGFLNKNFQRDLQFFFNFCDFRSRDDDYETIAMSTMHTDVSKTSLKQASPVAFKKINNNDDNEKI
Procedure, shortened: as §1

Human Melanocortin (MC4) = target: T3, Human Melanocortin (MC4) (Homo sapiens, UniProt P32245); experiment: Radioligand binding, human melanocortin MC4 membranes, FlashPlate, [125I]-NDP-αMSH; details: compound at 10 μM, [125I]-NDP-αMSH
T3 construct: purchased Perkin Elmer Biosignal
T3 sequence (P32245 whole entry): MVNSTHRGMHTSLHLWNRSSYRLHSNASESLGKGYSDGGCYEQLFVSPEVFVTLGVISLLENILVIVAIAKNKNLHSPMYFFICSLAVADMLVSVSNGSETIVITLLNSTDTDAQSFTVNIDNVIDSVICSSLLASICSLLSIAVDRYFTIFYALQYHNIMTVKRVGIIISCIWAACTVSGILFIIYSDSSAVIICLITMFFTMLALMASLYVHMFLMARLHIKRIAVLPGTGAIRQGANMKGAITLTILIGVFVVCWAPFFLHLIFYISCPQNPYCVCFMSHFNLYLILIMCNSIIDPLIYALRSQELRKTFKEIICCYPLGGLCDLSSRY
Procedure, shortened: as §1

Human κ-Opioid (KOP) = target: T4, Human κ-Opioid (KOP) (Homo sapiens, UniProt P41145); experiment: Radioligand binding, human κ-opioid (KOP) membranes, filtration, [3H]-Diprenorphine; details: compound at 10 μM, [3H]-Diprenorphine
T4 construct: purchased Perkin Elmer Biosignal
T4 sequence (P41145 whole entry): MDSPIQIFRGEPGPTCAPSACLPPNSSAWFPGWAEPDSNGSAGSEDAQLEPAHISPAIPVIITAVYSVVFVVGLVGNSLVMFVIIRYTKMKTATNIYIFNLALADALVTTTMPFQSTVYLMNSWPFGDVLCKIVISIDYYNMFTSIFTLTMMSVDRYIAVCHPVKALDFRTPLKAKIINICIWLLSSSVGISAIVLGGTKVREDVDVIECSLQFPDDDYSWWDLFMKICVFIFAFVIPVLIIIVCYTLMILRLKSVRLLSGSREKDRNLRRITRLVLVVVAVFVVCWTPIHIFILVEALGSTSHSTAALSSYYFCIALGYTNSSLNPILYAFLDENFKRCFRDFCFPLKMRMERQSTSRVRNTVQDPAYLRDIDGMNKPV
Procedure, shortened: (§2)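 Percent inhibition of radioligand binding measured on recombinant human membranes: NK1 with [125I]-Substance P, KOP with [3H]-Diprenorphine. Incubation 1 h at room temperature, then harvest onto 0.3% PEI-soaked filters, cold Tris-HCl pH 7.4 washes and scintillation counting; non-specific binding from reference ligand wells.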

Human opioid (ORL1) = target: T5, Human opioid (ORL1) (Homo sapiens, UniProt P41146); experiment: Radioligand binding, human opioid ORL1 membranes, FlashPlate, [125I]-Nociceptin; details: compound at 10 μM, [125I]-Nociceptin
T5 construct: purchased Perkin Elmer Biosignal
T5 sequence (P41146 whole entry): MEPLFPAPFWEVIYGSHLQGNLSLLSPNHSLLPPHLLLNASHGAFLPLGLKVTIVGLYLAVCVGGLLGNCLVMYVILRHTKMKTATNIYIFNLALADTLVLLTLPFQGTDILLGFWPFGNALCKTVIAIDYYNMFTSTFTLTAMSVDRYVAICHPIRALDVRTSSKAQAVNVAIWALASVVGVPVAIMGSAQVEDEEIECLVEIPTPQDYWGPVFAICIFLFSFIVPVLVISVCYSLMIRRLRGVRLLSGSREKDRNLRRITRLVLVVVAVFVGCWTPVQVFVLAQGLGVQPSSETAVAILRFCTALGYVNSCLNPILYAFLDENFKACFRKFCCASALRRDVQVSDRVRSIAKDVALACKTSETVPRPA
Procedure, shortened: as §1

Human melanocortin (MC5) = target: T6, Human melanocortin (MC5) (Homo sapiens, UniProt P33032); experiment: Radioligand binding, human melanocortin MC5 membranes, FlashPlate, [125I]-NDP-αMSH; details: compound at 10 μM, [125I]-NDP-αMSH
T6 construct: purchased Perkin Elmer Biosignal
T6 sequence (P33032 whole entry): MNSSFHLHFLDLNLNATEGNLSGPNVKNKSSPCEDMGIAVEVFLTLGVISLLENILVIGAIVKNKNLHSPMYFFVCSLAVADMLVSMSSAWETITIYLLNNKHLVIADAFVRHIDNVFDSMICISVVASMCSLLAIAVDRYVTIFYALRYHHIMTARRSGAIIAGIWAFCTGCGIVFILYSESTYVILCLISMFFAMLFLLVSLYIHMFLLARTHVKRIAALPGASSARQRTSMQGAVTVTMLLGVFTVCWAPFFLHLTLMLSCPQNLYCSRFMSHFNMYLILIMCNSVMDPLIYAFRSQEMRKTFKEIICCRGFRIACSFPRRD
Procedure, shortened: as §1

Mouse urotensin (mUR2) = target: T7, Mouse urotensin (mUR2) (Mus musculus, UniProt Q8VIH9); experiment: Radioligand binding, mouse urotensin mUR2 membranes, FlashPlate, [125I]-Urotensin II; details: compound at 10 μM, [125I]-Urotensin II
T7 construct: purchased Perkin Elmer Biosignal
T7 sequence (Q8VIH9 1-385): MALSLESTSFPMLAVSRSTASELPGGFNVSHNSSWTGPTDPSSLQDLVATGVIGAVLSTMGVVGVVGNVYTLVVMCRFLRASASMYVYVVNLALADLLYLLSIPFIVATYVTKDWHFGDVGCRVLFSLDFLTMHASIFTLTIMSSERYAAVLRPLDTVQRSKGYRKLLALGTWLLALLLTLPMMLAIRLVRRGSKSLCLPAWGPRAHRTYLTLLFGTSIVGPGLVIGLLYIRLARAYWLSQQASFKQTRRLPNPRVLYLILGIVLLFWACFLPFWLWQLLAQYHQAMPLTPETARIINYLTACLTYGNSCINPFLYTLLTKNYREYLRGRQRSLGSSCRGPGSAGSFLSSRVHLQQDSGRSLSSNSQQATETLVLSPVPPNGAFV
Procedure, shortened: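 Cloned mouse urotensin (mUR2) receptor membranes from Perkin Elmer Biosignal were immobilized in FlashPlate microplates using a proprietary coating. Each well got 19.5 μl buffer, then 0.5 μl of DMSO, reference ligand, or compound. Adding 5 μl of [125I]-Urotensin II, diluted to 5× final concentration in binding buffer, started binding. Plates were sealed with TopSeal-A and incubated 1 hour at room temperature in the dark. Wells were counted for 30 seconds each on a TopCount after a 60-second delay, and percentage inhibition was calculated.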

Human Melanocortin (MC3) = target: T8, Human Melanocortin (MC3) (Homo sapiens, UniProt P41968); experiment: Radioligand binding, human melanocortin MC3 membranes, FlashPlate, [125I]-NDP-αMSH; details: compound at 10 μM, [125I]-NDP-αMSH
T8 construct: purchased Perkin Elmer Biosignal
T8 sequence (P41968 whole entry): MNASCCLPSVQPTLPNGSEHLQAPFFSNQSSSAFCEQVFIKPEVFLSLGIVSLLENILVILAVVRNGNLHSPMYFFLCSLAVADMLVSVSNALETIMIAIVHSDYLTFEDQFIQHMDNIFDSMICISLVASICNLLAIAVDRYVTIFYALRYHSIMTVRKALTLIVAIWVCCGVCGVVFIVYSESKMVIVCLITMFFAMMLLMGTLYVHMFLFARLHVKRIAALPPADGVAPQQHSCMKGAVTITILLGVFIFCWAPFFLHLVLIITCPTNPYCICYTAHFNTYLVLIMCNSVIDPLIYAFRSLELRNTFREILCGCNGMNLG
Procedure, shortened: as §1

Human neurokinin (NK1) = target: T9, Human neurokinin (NK1) (Homo sapiens, UniProt P25103); experiment: Radioligand binding, human neurokinin NK1 membranes, filtration, [125I]-Substance P; details: compound at 10 μM, [125I]-Substance P
T9 construct: purchased Perkin Elmer Biosignal
T9 sequence (P25103 whole entry): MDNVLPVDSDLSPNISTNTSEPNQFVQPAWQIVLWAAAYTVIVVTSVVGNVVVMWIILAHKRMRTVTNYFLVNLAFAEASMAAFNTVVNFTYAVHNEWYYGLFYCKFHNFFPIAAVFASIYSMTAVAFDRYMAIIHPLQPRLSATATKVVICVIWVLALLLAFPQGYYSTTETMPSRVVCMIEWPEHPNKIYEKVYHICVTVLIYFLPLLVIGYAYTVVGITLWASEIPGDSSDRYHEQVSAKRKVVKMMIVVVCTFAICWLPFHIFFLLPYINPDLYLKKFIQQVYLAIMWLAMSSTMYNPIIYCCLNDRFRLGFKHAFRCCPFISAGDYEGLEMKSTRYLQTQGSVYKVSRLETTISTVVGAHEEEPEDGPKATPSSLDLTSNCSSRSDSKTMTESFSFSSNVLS
Procedure, shortened: as §2

Human μ-opioid (MOP) = target: T10, Human μ-opioid (MOP) (Homo sapiens, UniProt P35372); experiment: Radioligand binding, human μ-opioid (MOP) membranes, FlashPlate, [3H]-Naloxone; details: compound at 10 μM, [3H]-Naloxone
T10 construct: purchased Perkin Elmer Biosignal
T10 sequence (P35372 whole entry): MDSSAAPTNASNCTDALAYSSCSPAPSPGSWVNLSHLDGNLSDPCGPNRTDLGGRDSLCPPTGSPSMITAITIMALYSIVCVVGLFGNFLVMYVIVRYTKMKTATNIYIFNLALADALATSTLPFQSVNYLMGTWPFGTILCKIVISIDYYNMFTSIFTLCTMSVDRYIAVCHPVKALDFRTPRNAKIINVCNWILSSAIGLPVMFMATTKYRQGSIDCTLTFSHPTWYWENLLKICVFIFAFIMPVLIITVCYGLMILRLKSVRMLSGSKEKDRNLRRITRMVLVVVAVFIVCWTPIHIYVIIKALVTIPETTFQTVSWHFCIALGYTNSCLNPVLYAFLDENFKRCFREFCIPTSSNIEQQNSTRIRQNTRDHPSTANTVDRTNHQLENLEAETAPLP
Procedure, shortened: as §1

[2] = target: T11, Human melanin-concentrating hormone (MCH1) (Homo sapiens, UniProt Q99705); experiment: Radioligand binding, human melanin-concentrating hormone MCH1 membranes, FlashPlate, [125I]-S36057; details: compound at 10 μM; for A6: inhibition of radioligand binding, human melanin-concentrating hormone (MCH1): [125I]-S36057
T11 construct: purchased Perkin Elmer Biosignal
T11 sequence (Q99705 whole entry): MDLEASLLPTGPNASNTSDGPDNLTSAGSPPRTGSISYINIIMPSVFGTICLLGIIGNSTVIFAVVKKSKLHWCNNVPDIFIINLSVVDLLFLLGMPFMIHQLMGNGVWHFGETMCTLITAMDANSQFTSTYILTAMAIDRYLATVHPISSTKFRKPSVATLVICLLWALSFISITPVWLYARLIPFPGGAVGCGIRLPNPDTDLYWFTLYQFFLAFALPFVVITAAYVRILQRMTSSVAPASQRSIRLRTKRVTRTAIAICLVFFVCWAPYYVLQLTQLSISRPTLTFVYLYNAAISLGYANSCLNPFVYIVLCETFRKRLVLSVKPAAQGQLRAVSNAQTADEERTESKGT
Procedure, shortened: as §1

T1 sequence (P41143 whole entry): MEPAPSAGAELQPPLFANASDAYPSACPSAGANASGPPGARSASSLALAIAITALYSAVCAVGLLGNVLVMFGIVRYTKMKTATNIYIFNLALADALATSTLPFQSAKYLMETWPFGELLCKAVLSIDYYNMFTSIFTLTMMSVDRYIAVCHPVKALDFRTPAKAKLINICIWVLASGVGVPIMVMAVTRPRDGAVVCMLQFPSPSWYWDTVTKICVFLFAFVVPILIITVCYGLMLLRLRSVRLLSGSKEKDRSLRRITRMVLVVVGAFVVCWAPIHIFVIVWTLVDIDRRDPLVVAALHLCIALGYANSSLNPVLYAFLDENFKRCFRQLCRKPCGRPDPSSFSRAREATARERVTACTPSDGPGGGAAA

## CSC1OC(COCc2cccc(N)c2)C(O)C(OCc2ccc(Cl)cc2)C1NC(=O)c1c[nH]c2ccccc12 (centres unmarked) [compound 334]
Human δ-opioid (DOP)
  A1: inhibition of radioligand binding, human δ-opioid (DOP): − (“−” indicates less than 50% inhibition at 10 μM)
[1]
  A9: inhibition of radioligand binding, human neuropeptide Y (NPY-Y1): − (“−” indicates less than 50% inhibition at 10 μM)
Human Melanocortin (MC4)
  A4: inhibition of radioligand binding, human melanocortin (MC4): − (“−” indicates less than 50% inhibition at 10 μM)
Human κ-Opioid (KOP)
  A2: inhibition of radioligand binding, human κ-opioid (KOP): − (“−” indicates less than 50% inhibition at 10 μM)
Human opioid (ORL1)
  A10: inhibition of radioligand binding, human opioid (ORL1): − (“−” indicates less than 50% inhibition at 10 μM)
Human melanocortin (MC5)
  A5: inhibition of radioligand binding, human melanocortin (MC5): − (“−” indicates less than 50% inhibition at 10 μM)
Mouse urotensin (mUR2)
  A11: inhibition of radioligand binding, mouse urotensin (mUR2): − (“−” indicates less than 50% inhibition at 10 μM)
Human Melanocortin (MC3)
  A3: inhibition of radioligand binding, human melanocortin (MC3): − (“−” indicates less than 50% inhibition at 10 μM)
Human neurokinin (NK1)
  A8: inhibition of radioligand binding, human neurokinin (NK1): + (“+” indicates greater than 50% inhibition at 10 μM)
Human μ-opioid (MOP)
  A7: inhibition of radioligand binding, human μ-opioid (MOP): − (“−” indicates less than 50% inhibition at 10 μM)
[2]
  A6: inhibition of radioligand binding, human melanin-concentrating hormone (MCH1): − (“−” indicates less than 50% inhibition at 10 μM)

## COCC1OC(OCc2ccc3ccccc3c2)C(NC(=O)CCNC(=N)N)C(OCc2ccc(Cl)cc2)C1O (centres unmarked) [compound 238]
Human δ-opioid (DOP); FlashPlate
  A1: inhibition of radioligand binding: + (“+” indicates greater than 50% inhibition at 10 μM)
[1]; FlashPlate
  A9: inhibition of radioligand binding: − (“−” indicates less than 50% inhibition at 10 μM)
Human Melanocortin (MC4); FlashPlate
  A4: inhibition of radioligand binding: + (“+” indicates greater than 50% inhibition at 10 μM)
Human κ-Opioid (KOP); filtration
  A2: inhibition of radioligand binding: − (“−” indicates less than 50% inhibition at 10 μM)
Human opioid (ORL1); FlashPlate
  A10: inhibition of radioligand binding: + (“+” indicates greater than 50% inhibition at 10 μM)
Human melanocortin (MC5); FlashPlate
  A5: inhibition of radioligand binding: + (“+” indicates greater than 50% inhibition at 10 μM)
Mouse urotensin (mUR2); FlashPlate
  A11: inhibition of radioligand binding: − (“−” indicates less than 50% inhibition at 10 μM)
Human Melanocortin (MC3); FlashPlate
  A3: inhibition of radioligand binding: + (“+” indicates greater than 50% inhibition at 10 μM)
Human neurokinin (NK1); filtration
  A8: inhibition of radioligand binding: + (“+” indicates greater than 50% inhibition at 10 μM)
Human μ-opioid (MOP); FlashPlate
  A7: inhibition of radioligand binding: − (“−” indicates less than 50% inhibition at 10 μM)
[2]; [125I]-S36057, FlashPlate
  A6: inhibition of radioligand binding: + (“+” indicates greater than 50% inhibition at 10 μM)

## N=C(N)NCC(=O)NC1C(OCc2ccc(Cl)cc2)OC(COCc2ccc3ccccc3c2)C(O)C1OCc1ccc(Cl)cc1 (single isomer, unassigned) [compound 507]
Human δ-opioid (DOP)
  A1: inhibition of radioligand binding, human δ-opioid (DOP): − (“−” indicates less than 50% inhibition at 10 μM)
[1]
  A9: inhibition of radioligand binding, human neuropeptide Y (NPY-Y1): − (“−” indicates less than 50% inhibition at 10 μM)
Human Melanocortin (MC4)
  A4: inhibition of radioligand binding, human melanocortin (MC4): + (“+” indicates greater than 50% inhibition at 10 μM)
Human κ-Opioid (KOP); 10 µM
  A2: inhibition of radioligand binding, human κ-opioid (KOP): − (“−” indicates less than 50% inhibition at 10 μM)
Human opioid (ORL1)
  A10: inhibition of radioligand binding, human opioid (ORL1): + (“+” indicates greater than 50% inhibition at 10 μM)
Human melanocortin (MC5)
  A5: inhibition of radioligand binding, human melanocortin (MC5): + (“+” indicates greater than 50% inhibition at 10 μM)
Mouse urotensin (mUR2)
  A11: inhibition of radioligand binding, mouse urotensin (mUR2): − (“−” indicates less than 50% inhibition at 10 μM)
Human Melanocortin (MC3); 10 µM
  A3: inhibition of radioligand binding, human melanocortin (MC3): − (“−” indicates less than 50% inhibition at 10 μM)
Human neurokinin (NK1)
  A8: inhibition of radioligand binding, human neurokinin (NK1): + (“+” indicates greater than 50% inhibition at 10 μM)
Human μ-opioid (MOP)
  A7: inhibition of radioligand binding, human μ-opioid (MOP): − (“−” indicates less than 50% inhibition at 10 μM)
[2]
  A6: inhibition of radioligand binding, human melanin-concentrating hormone (MCH1): + (“+” indicates greater than 50% inhibition at 10 μM)

## NCCC(=O)N[C@H]1C(OCc2ccc3ccccc3c2)O[C@H](COCc2ccccc2)[C@@H](O)[C@@H]1OCc1ccc2ccccc2c1 (some centres unmarked) [compound 445]
Human δ-opioid (DOP); human DOP membranes
  A1: inhibition of radioligand binding: − (“−” indicates less than 50% inhibition at 10 μM)
[1]; human NPY-Y1 membranes
  A9: inhibition of radioligand binding: − (“−” indicates less than 50% inhibition at 10 μM)
Human Melanocortin (MC4); human MC4 membranes, 10 µM
  A4: inhibition of radioligand binding: + (“+” indicates greater than 50% inhibition at 10 μM)
Human κ-Opioid (KOP); human KOP membranes, 10 µM
  A2: inhibition of radioligand binding: + (“+” indicates greater than 50% inhibition at 10 μM)
Human opioid (ORL1); human ORL1 membranes, 10 µM
  A10: inhibition of radioligand binding: + (“+” indicates greater than 50% inhibition at 10 μM)
Human melanocortin (MC5); human MC5 membranes, 10 µM
  A5: inhibition of radioligand binding: + (“+” indicates greater than 50% inhibition at 10 μM)
Mouse urotensin (mUR2); mouse mUR2 membranes
  A11: inhibition of radioligand binding: − (“−” indicates less than 50% inhibition at 10 μM)
Human Melanocortin (MC3); human MC3 membranes, 10 µM
  A3: inhibition of radioligand binding: + (“+” indicates greater than 50% inhibition at 10 μM)
Human neurokinin (NK1); human NK1 membranes
  A8: inhibition of radioligand binding: + (“+” indicates greater than 50% inhibition at 10 μM)
Human μ-opioid (MOP); human MOP membranes, 10 µM
  A7: inhibition of radioligand binding: + (“+” indicates greater than 50% inhibition at 10 μM)
[2]; [125I]-S36057, human MCH1 membranes, 10 µM
  A6: inhibition of radioligand binding: + (“+” indicates greater than 50% inhibition at 10 μM)
